From ChEMBL document CHEMBL3217756, “Biological and computational evaluation of an oxadiazole derivative (MD77) as a new lead for direct STAT3 inhibitors” (Medchemcomm, 2012)

Tests used:
[1] = Cytotoxicity against human OVCAR4 cells after 48 hrs by sulforhodamine B assay; assay type: functional; conditions: OVCAR-4, 48 h
CAKI-1 = assay: Cytotoxicity against human CAKI-1 cells after 48 hrs by sulforhodamine B assay; assay type: functional; conditions: CAKI-1, 48 h
[2] = Cytotoxicity against human EKVX cells after 48 hrs by sulforhodamine B assay; assay type: functional
DU-145 = assay: Cytotoxicity against human DU145 cells after 48 hrs by sulforhodamine B assay; assay type: functional; conditions: DU-145, 48 h
NCI-H322M = assay: Cytotoxicity against human NCI-H322M cells after 48 hrs by sulforhodamine B assay; assay type: functional
SF-539 = assay: Cytotoxicity against human SF539 cells after 48 hrs by sulforhodamine B assay; assay type: functional; conditions: SF-539, 48 h
SK-MEL-2 = assay: Cytotoxicity against human SK-MEL-2 cells after 48 hrs by sulforhodamine B assay; assay type: functional; conditions: SK-MEL-2, 48 h
[3] = molecular target: Signal transducer and activator of transcription 3 (Homo sapiens, UniProt P40763); assay: Inhibition of SH2 domain of STAT3 (unknown origin) using (FITC)-GpYLPQTV as substrate at 30 uM preincubated for 15 mins before substrate addition measured after 90 mins by alphascreen based assay
NCI-H226 = assay: Cytotoxicity against human NCI-H226 cells after 48 hrs by sulforhodamine B assay; assay type: functional; conditions: NCI-H226, 48 h
[4] = molecular target: Signal transducer and activator of transcription 1-alpha/beta (Homo sapiens, UniProt P42224); assay: Inhibition of SH2 domain of STAT1 (unknown origin) using FITC-GpYDKPHVL as substrate preincubated for 15 mins before substrate addition measured after 90 mins by alphascreen based assay
[5] = molecular target: T1, Growth factor receptor-bound protein 2 (Homo sapiens, UniProt P62993); assay: Inhibition of SH2 domain of GRB2 (unknown origin) using FITC-PSpYVNVQN as substrate at 30 uM preincubated for 15 mins before substrate addition measured after 90 mins by alphascreen based assay
Target sequence in this assay (P62993 whole entry, looked up, the tested form may be a part): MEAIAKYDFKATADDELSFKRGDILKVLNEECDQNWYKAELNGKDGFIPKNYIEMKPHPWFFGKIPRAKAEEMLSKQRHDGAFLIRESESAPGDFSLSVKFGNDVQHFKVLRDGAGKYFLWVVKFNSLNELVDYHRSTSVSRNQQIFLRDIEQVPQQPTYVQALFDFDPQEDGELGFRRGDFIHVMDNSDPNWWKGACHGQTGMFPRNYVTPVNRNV

HOP-92 = assay: Cytotoxicity against human HOP92 cells after 48 hrs by sulforhodamine B assay; assay type: functional; conditions: HOP-92, 48 h
COLO 205 = assay: Cytotoxicity against human COLO205 cells after 48 hrs by sulforhodamine B assay; assay type: functional; conditions: COLO 205, 48 h
[6] = Cytotoxicity against human UACC257 cells after 48 hrs by sulforhodamine B assay; assay type: functional; conditions: UACC-257, 48 h
M14 = assay: Cytotoxicity against human M14 cells after 48 hrs by sulforhodamine B assay; assay type: functional; conditions: M14, 48 h
[7] = Cytotoxicity against human UO31 cells after 48 hrs by sulforhodamine B assay; assay type: functional; conditions: UO-31, 48 h
[8] = Cytotoxicity against human Hs 578T cells after 48 hrs by sulforhodamine B assay; assay type: functional
NCI-H460 = assay: Cytotoxicity against human NCI-H460 cells after 48 hrs by sulforhodamine B assay; assay type: functional; conditions: NCI-H460, 48 h
NCI-H23 = assay: Cytotoxicity against human NCI-H23 cells after 48 hrs by sulforhodamine B assay; assay type: functional; conditions: NCI-H23, 48 h
MDA-MB-468 = assay: Cytotoxicity against human MDA-MB-468 cells after 48 hrs by sulforhodamine B assay; assay type: functional; conditions: MDA-MB-468, 48 h
[9] = molecular target: T1, Growth factor receptor-bound protein 2; assay: Inhibition of SH2 domain of GRB2 (unknown origin) using FITC-PSpYVNVQN as substrate preincubated for 15 mins before substrate addition measured after 90 mins by alphascreen based assay
Target sequence in this assay (P62993 whole entry, the tested form may be a part): as the sequence (P62993 whole entry, looked up, the tested form may be a part) above

[10] = Cytotoxicity against human UACC62 cells after 48 hrs by sulforhodamine B assay; assay type: functional; conditions: UACC-62, 48 h
[11] = read-out: LC50 (the source's name)
[12] = read-out: pLC50 (the source's name) (converted)

Chain of Signal transducer and activator of transcription 1-alpha/beta (P42224 whole entry, the tested form may be a part): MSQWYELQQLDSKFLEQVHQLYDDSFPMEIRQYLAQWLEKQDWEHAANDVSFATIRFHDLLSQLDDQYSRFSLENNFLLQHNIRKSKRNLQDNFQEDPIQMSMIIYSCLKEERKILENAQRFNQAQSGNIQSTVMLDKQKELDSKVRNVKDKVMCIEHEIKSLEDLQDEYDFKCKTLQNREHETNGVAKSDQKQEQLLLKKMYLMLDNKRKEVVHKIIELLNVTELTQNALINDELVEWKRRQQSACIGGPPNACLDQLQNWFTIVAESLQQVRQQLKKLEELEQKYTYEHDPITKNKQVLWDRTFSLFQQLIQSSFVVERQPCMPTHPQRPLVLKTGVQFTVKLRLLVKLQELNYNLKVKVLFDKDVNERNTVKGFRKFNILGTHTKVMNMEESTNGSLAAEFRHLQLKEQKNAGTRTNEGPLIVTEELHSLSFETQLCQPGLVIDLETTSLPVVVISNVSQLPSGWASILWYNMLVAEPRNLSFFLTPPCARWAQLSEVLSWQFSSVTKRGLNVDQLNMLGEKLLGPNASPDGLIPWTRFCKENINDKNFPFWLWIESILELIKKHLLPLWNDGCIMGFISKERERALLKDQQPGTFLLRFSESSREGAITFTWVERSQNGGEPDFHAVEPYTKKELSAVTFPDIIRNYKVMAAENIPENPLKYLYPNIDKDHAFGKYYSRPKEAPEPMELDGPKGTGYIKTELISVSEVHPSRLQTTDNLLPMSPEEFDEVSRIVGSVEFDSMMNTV
Chain of Signal transducer and activator of transcription 3 (P40763 whole entry, the tested form may be a part): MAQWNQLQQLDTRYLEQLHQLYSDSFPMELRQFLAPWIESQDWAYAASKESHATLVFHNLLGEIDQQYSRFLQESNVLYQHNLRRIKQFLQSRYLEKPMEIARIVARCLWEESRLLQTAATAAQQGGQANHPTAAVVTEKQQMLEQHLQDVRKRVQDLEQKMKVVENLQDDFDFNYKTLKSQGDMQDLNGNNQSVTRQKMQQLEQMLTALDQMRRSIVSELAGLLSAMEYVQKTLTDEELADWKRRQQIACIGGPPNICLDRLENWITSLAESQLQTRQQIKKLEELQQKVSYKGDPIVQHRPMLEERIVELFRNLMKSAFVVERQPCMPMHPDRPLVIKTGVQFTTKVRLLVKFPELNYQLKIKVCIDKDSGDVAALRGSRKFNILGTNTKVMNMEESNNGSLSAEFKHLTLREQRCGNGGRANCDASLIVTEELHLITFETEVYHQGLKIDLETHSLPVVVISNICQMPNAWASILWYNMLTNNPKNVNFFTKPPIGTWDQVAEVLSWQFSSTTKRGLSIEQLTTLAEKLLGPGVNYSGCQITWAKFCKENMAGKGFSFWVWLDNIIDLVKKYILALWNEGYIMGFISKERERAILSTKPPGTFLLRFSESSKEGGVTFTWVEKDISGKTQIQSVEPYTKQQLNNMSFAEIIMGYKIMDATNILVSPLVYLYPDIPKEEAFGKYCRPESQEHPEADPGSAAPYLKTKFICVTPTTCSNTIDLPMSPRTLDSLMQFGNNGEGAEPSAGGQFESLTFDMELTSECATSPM

O=C(Nc1nonc1-c1ccc(Cl)cc1)c1ccc(C(F)(F)F)cc1
GI50 ([1]; read-out: GI50): 1.83 µM
TGI ([1]; read-out: TGI): 4.21 µM
GI50 ([1]; read-out: pGI50 (converted)): 1.82 µM
TGI ([1]; read-out: pTGI (converted)): 4.17 µM
GI50 (CAKI-1; read-out: GI50): 1.9 µM
CC50 (CAKI-1; [11]): > 100 µM
TGI (CAKI-1; read-out: TGI): 7.59 µM
GI50 (CAKI-1; read-out: pGI50 (converted)): 1.91 µM
CC50 (CAKI-1; [12]): > 100 µM
TGI (CAKI-1; read-out: pTGI (converted)): 7.59 µM
GI50 ([2]; read-out: GI50): 3.4 µM
CC50 [2, 11]: > 100 µM
TGI ([2]; read-out: TGI): 33.6 µM
GI50 ([2]; read-out: pGI50 (converted)): 3.39 µM
CC50 [2, 12]: > 100 µM
TGI ([2]; read-out: pTGI (converted)): 33.9 µM
GI50 (DU-145; read-out: GI50): 3.48 µM
CC50 (DU-145; [11]): > 100 µM
TGI (DU-145; read-out: TGI): > 100 µM
GI50 (DU-145; read-out: pGI50 (converted)): 3.47 µM
CC50 (DU-145; [12]): > 100 µM
TGI (DU-145; read-out: pTGI): > 100 µM
GI50 (NCI-H322M; read-out: GI50): 1.78 µM
CC50 (NCI-H322M; [11]): > 100 µM
TGI (NCI-H322M; read-out: TGI): > 100 µM
GI50 (NCI-H322M; read-out: pGI50 (converted)): 1.78 µM
CC50 (NCI-H322M; [12]): > 100 µM
TGI (NCI-H322M; read-out: pTGI): > 100 µM
GI50 (SF-539; read-out: GI50): 3.68 µM
CC50 (SF-539; [11]): > 100 µM
TGI (SF-539; read-out: TGI): 17.1 µM
GI50 (SF-539; read-out: pGI50 (converted)): 3.72 µM
CC50 (SF-539; [12]): > 100 µM
TGI (SF-539; read-out: pTGI (converted)): 17 µM
GI50 (SK-MEL-2; read-out: GI50): 2.1 µM
LC50 (concentration killing 50% of cells) (SK-MEL-2; read-out: LC50): > 100 µM
TGI (SK-MEL-2; read-out: TGI): 5.11 µM
GI50 (SK-MEL-2; read-out: pGI50 (converted)): 2.09 µM
LC50 (concentration killing 50% of cells) (SK-MEL-2; read-out: pLC50 (converted)): > 100 µM
TGI (SK-MEL-2; read-out: pTGI (converted)): 5.13 µM
inhibition [3]: 72%
GI50 (NCI-H226; read-out: GI50): 2.48 µM
CC50 (NCI-H226; [11]): > 100 µM
TGI (NCI-H226; read-out: TGI): 7.85 µM
GI50 (NCI-H226; read-out: pGI50 (converted)): 2.45 µM
CC50 (NCI-H226; [12]): > 100 µM
TGI (NCI-H226; read-out: pTGI (converted)): 7.76 µM
IC50 [4]: 7.2 µM
inhibition [5]: 10.5%
GI50 (HOP-92; read-out: GI50): 0.668 µM
CC50 (HOP-92; [11]): > 100 µM
TGI (HOP-92; read-out: TGI): 3.96 µM
GI50 (HOP-92; read-out: pGI50 (converted)): 0.661 µM
CC50 (HOP-92; [12]): > 100 µM
TGI (HOP-92; read-out: pTGI (converted)): 3.98 µM
GI50 (COLO 205; read-out: GI50): 3.8 µM
CC50 (COLO 205; [11]): 41.3 µM
TGI (COLO 205; read-out: TGI): 12 µM
GI50 (COLO 205; read-out: pGI50 (converted)): 3.8 µM
CC50 (COLO 205; [12]): 41.7 µM
TGI (COLO 205; read-out: pTGI (converted)): 12 µM
GI50 ([6]; read-out: GI50): 2.17 µM
LC50 (50% lethal concentration) ([6]; read-out: LC50): > 100 µM
TGI ([6]; read-out: TGI): 9.02 µM
GI50 ([6]; read-out: pGI50 (converted)): 2.19 µM
LC50 (50% lethal concentration) ([6]; read-out: pLC50 (converted)): > 100 µM
TGI ([6]; read-out: pTGI (converted)): 9.12 µM
GI50 (M14; read-out: GI50): 2.04 µM
CC50 (M14; [11]): > 100 µM
TGI (M14; read-out: TGI): > 100 µM
GI50 (M14; read-out: pGI50 (converted)): 2.04 µM
CC50 (M14; [12]): > 100 µM
TGI (M14; read-out: pTGI): > 100 µM
GI50 ([7]; read-out: GI50): 2.37 µM
CC50 [7, 11]: > 100 µM
TGI ([7]; read-out: TGI): > 100 µM
GI50 ([7]; read-out: pGI50 (converted)): 2.34 µM
CC50 [7, 12]: > 100 µM
TGI ([7]; read-out: pTGI): > 100 µM
GI50 ([8]; read-out: GI50): 2.53 µM
CC50 [8, 11]: > 100 µM
TGI ([8]; read-out: TGI): > 100 µM
GI50 ([8]; read-out: pGI50 (converted)): 2.51 µM
CC50 [8, 12]: > 100 µM
TGI ([8]; read-out: pTGI): > 100 µM
GI50 (NCI-H460; read-out: GI50): 0.629 µM
CC50 (NCI-H460; [11]): > 100 µM
GI50 (NCI-H460; read-out: pGI50 (converted)): 0.631 µM
CC50 (NCI-H460; [12]): > 100 µM
GI50 (NCI-H23; read-out: GI50): 1.89 µM
CC50 (NCI-H23; [11]): > 100 µM
TGI (NCI-H23; read-out: TGI): 7.94 µM
GI50 (NCI-H23; read-out: pGI50 (converted)): 1.91 µM
CC50 (NCI-H23; [12]): > 100 µM
TGI (NCI-H23; read-out: pTGI (converted)): 7.94 µM
GI50 (MDA-MB-468; read-out: GI50): 3.36 µM
LC50 (MDA-MB-468; read-out: LC50): > 100 µM
TGI (MDA-MB-468; read-out: TGI): 27 µM
GI50 (MDA-MB-468; read-out: pGI50 (converted)): 3.39 µM
LC50 (MDA-MB-468; read-out: pLC50 (converted)): > 100 µM
TGI (MDA-MB-468; read-out: pTGI (converted)): 26.9 µM
IC50 [9]: > 100 µM
GI50 ([10]; read-out: GI50): 2.11 µM
CC50 [10, 11]: > 100 µM
TGI ([10]; read-out: TGI): 6.83 µM
GI50 ([10]; read-out: pGI50 (converted)): 2.09 µM
CC50 [10, 12]: > 100 µM
TGI ([10]; read-out: pTGI (converted)): 6.76 µM
